In publication PMC2747306 (Structure (London, England : 1993), 2009):

B1: FimX^ΔEAL (residues 1-431: N-terminal response receiver, PAS and GGDEF domains) (domain or fragment)
chain: MAIEKKTIRLLILEDSQNEAERLVSLFRNAGHATRVHRLTSPEDLAETLQQSWDLLIAAPTSECLEPGEALATLRRQSRDIPFIQLVADNSSDAITDALMLGAQDALPQGEDERLVLVANRELAGLAERRARRAAELALREAEKRCQLLLDSSVDAITYVHDGMHIYANRSYMALFGYEDAEELEGLPVIDLIASCDQGAFKDFLKGYQNDQRQTELVCTGVKLDGQEFKARISLSAATYDGEPCIQVVIRGEVDNAELEEKLREVSSQDPVTGLYNRSHFLDLMDAAVQQAVTARKPSTLAYIHLNGYPSLQADHGLSGIDLLLGQLAGLMREQFGEEADLARFGDSIFAALFKGKTPEQAQAALQRLLKKVENHLFELNGRSAQATLSIGVAGLDEKTAKAQDVMNRAHRCADDAARKGGSQIKQYNPA

Tests used:
[1] = target: FimX^full-length (Pseudomonas aeruginosa, UniProt Q9HUK6); assay: isothermal titration calorimetry; type: binding
[2] = target: FimX^EAL (Pseudomonas aeruginosa, UniProt Q9HUK6); assay: isothermal titration calorimetry; type: binding
[3] = target: the molecule itself; assay: AUC

Row | Molecule | Kd [1] | Kd [2] | stoichiometry N [3]
1 | Nc1nc2c(ncn2[C@@H]2O[C@@H]3CO[P@](=O)(O)O[C@H]4[C@@H](O)[C@H](n5cnc6c(=O)[nH]c(N)nc65)O[C@@H]4CO[P@](=O)(O)O[C@H]3[C@H]2O)c(=O)[nH]1 [c-di-GMP] | 0.125 µM | 0.104 µM | 
2 | B1 |  |  | 2
